Patent publication US7678918B2, “Intermediates for imidazonaphthyridines” (3M Innovative Properties Company, priority 1997, dated 2010)

Tests used:
[1] = test system: TNF; assay: Cytokine Induction in Human Cells: tumor necrosis factor (TNF) secreted by PBMCs, ELISA; type: cell-based; details: 18 to 24 hours
Excerpt: (§1) An in vitro human blood cell system was used to assess cytokine induction by compounds of the invention. Activity is based on the measurement of interferon and tumor necrosis factor (ℑ) (IFN and TNF, respectively) secreted into culture media as described by Testerman et. al. In “Cytokine Induction by the Immunomodulators Imiquimod and S-27609”, Journal of Leukocyte Biology, 58, 365-372 (September, 1995). Blood Cell Preparation for Culture
(§2) Whole blood is collected by venipuncture into EDTA vacutainer tubes from healthy human donors. Peripheral blood mononuclear cells (PBMCs) are separated from whole blood by Histopaque®-1077 (Sigma Chemicals, St. Louis, Mo.) density gradient centrifugation. The PBMCs are suspended at 1.5-2×10^6 cells/mL in RPMI 1640 medium containing 10% fetal bovine serum, 2 mM L-glutamine and 1% penicillin/streptomycin solution (RPMI complete). 1 mL portions of PBMC suspension are added to 24 well flat bottom sterile tissue culture plates.
(§3) The compounds are solubilized in dimethyl sulfoxide (DMSO). The DMSO concentration should not exceed a final concentration of 1% for addition to the culture wells. The compounds are generally tested in a concentration range of from 0.1 to 100 μM.
(§4) The solution of test compound is added to the wells containing 1 mL of PBMCs in media. The plates are covered with plastic lids, mixed gently and then incubated for 18 to 24 hours at 37° C. with a 5% carbon dioxide atmosphere.
(§5) Following incubation the plates are centrifuged for 5-10 minutes at 1000 rpm (˜200×g) at 4° C. The cell culture supernatant is removed with a sterile polypropylene pipet and transferred to a 2 mL sterile cryotube. Samples are maintained at −70° C. until analysis.
Tumor necrosis factor (ℑ) (TNF) concentration is determined using an ELISA kit available from Genzyme, Cambridge, Mass. The results are expressed as pg/mL.

[2] = test system: IFN; assay: Cytokine Induction in Human Cells: interferon (IFN) secreted by PBMCs, A549/encephalomyocarditis bioassay; type: cell-based; details: 18 to 24 hours
Excerpt: as §1, §2, §3, §4, §5
Interferon is determined by bioassay using A549 human lung carcinoma cells challenged with encephalomyocarditis. The details of the bioassay method have been described by G. L. Brennan and L. H. Kronenberg in “Automated Bioassay of Interferons in Micro-test Plates”, Biotechniques, June/July 78, 1983, incorporated herein by reference. Briefly stated the method is as follows: A549 cells are incubated with samples and standard interferon dilutions at 37° C. for 24 hours. The incubated cells are then infected with an inoculum of encephalomyocarditis virus. The infected cells are incubated for an additional 24 hours at 37° C. before quantifying for viral cytopathic effect. The viral cytopathic effect is quantified by staining followed by visual scoring of the plates. Results are expressed as alpha reference units/mL based on the value obtained for NIH Human Leukocyte IFN standard.
Further: call rule not given here.

| Structure (SMILES) | TNF induction ([1]; Dose Concentration 0.1 μM) | TNF induction ([1]; Dose Concentration 1.0 μM) | TNF induction ([1]; Dose Concentration 10.0 μM) | TNF induction ([1]; Dose Concentration 100.0 μM) | IFN induction ([2]; Dose Concentration 0.1 μM) | IFN induction ([2]; Dose Concentration 1.0 μM) | IFN induction ([2]; Dose Concentration 10.0 μM) | IFN induction ([2]; Dose Concentration 100.0 μM) |
| --- | --- | --- | --- | --- | --- | --- | --- | --- |
| CCCCc1nc2c(N)nc3cccnc3c2n1CCNS(C)(=O)=O [Example 116, N^1-[4-(4-Amino-2-butyl-1H-imidazo[4,5-c][1,5]naphthyridin-1-yl)ethyl]methanesulfonamide] | − | + | + | + | − | + | + | + |
| CCCCc1nc2c(N)nc3cccnc3c2n1CCNS(=O)(=O)c1ccccc1 [Example 117, N^1-[4-(4-Amino-2-butyl-1H-imidazo[4,5-c][1,5]naphthyridin-1-yl)ethyl]benzenesulfonamide] | − | − | + | + | − | − | + | + |
| CCCCc1nc2c(N)nc3cccnc3c2n1CCNC(=O)C1(c2ccc(Cl)cc2)CCCC1 [Example 119] |  | − | − | − |  | − | − | − |
| CCCCc1nc2c(N)nc3cccnc3c2n1CCNC(=O)COCc1ccccc1 [Example 121] |  | + | + | + |  | + | + | + |
| CCCCc1nc2c(N)nc3cccnc3c2n1CCNC(=O)CCCCCCCCC(=O)OC [Example 122] |  | − | + | + |  | − | + | + |
| CCCCc1nc2c(N)nc3cccnc3c2n1CCNC(=O)CC1CCCC1 [Example 124] |  | − | + | + |  | + | + | + |
| CCCCc1nc2c(N)nc3cccnc3c2n1CCNC(=O)c1cc(C(F)(F)F)cc(C(F)(F)F)c1 [Example 125] |  | − | + | + |  | + | + | + |
| CCCCc1nc2c(N)nc3cccnc3c2n1CCNC(=O)c1c(OC)cccc1OC [Example 128] |  | − | ± | + |  | ± | + | + |
| CCCCc1nc2c(N)nc3cccnc3c2n1CCNC(=O)c1ccc(F)cc1 [Example 129] |  | + | + | + |  | + | + | + |
| CCCCc1nc2c(N)nc3cccnc3c2n1CCNC(=O)CC(C)(C)C [Example 135] |  | − | + | + |  | − | + | + |
| CCCCc1nc2c(N)nc3cccnc3c2n1CCNC(=O)C1CC1 [Example 136] |  | − | + | + |  | + | + | + |
| CCCCc1nc2c(N)nc3cccnc3c2n1CCNC(=O)C1CCCC1 [Example 137] |  | − | ± | + |  | + | + | + |
| CCCCc1nc2c(N)nc3cccnc3c2n1CCNC(=O)CCC1CCCC1 [Example 138] |  | + | + | + |  | + | + | + |
| CCCCc1nc2c(N)nc3cccnc3c2n1CCNC(=O)c1ccc(C#N)cc1 [Example 139] |  | − | + | + |  | + | + | + |
| CCCCc1nc2c(N)nc3cccnc3c2n1CCNC(=O)c1c(C)cc(C)cc1C [Example 143] |  | − | ± | − |  | − | + | + |
| CCCCc1nc2c(N)nc3cccnc3c2n1CCNC(=O)c1ccccc1OC [Example 144] | − | + | + | + | + | + | + | + |
| CCCCc1nc2c(N)nc3cccnc3c2n1CCNC(=O)CCCCC(=O)OC [Example 145] | − | + | + | + | − | − | + | + |
| CCCCc1nc2c(N)nc3cccnc3c2n1CCNC(=O)c1ccc([N+](=O)[O-])o1 [Example 146] | + | + | + | + | + | + | + | − |
| CCCCc1nc2c(N)nc3cccnc3c2n1CCNC(=O)c1cccnc1Cl [Example 147] | − | − | + | + | − | + | + | + |
| CCCCCCCOc1ccc(C(=O)NCCn2c(CCCC)nc3c(N)nc4cccnc4c32)cc1 [Example 149] | − | − | − | − | − | − | − | − |
| CCCCc1nc2c(N)nc3cccnc3c2n1CCNC(=O)c1ccc(C(=O)OC)cc1 [Example 150] | − | − | + | + | − | − | + | + |
| CCCCc1nc2c(N)nc3cccnc3c2n1CCNC(=O)Cc1ccc(OC)cc1 [Example 152] | − | − | + | + | − | − | + | + |
| CCCCc1nc2c(N)nc3cccnc3c2n1CCCCNC(=O)c1cccc(Br)c1 [Example 153] | − | + | + | − | − | + | + | − |
| CCCCc1nc2c(N)nc3cccnc3c2n1CCCCNC(=O)C1(c2ccc(Cl)cc2)CCCC1 [Example 155] | − | − | + | + | − | + | + | + |
| CCCCc1nc2c(N)nc3cccnc3c2n1CCCCNC(=O)COCc1ccccc1 [Example 157] | − | − | + | − | + | + | + | − |
| CCCCc1nc2c(N)nc3cccnc3c2n1CCCCNC(=O)CCCCCCCCC(=O)OC [Example 158] | − | − | + | − | − | + | + | + |
| CCCCc1nc2c(N)nc3cccnc3c2n1CCCCNC(=O)CC1CCCC1 [Example 160] | − | + | + | − | + | + | + | − |
